“Also recorded” adds a separate entry of the source.
Legend:
[1] = biological target: T1, α1β2γ2 GABAA receptors expressed in Xenopus laevis oocytes (Homo sapiens, UniProt P14867+P18507); assay: Oocyte two-electrode voltage clamp electrophysiology, α1β2γ2; type: cell-based; settings: GABA at EC10-20, normalized to diazepam
T1 construct: expressed in transfected cells; host or cells: Xenopus laevis oocytes injected with cRNA
Experimental: (§1) FIG. 1. […] Efficacy profile on GABAA receptors in oocyte two-electrode voltage clamp recordings. […] Peak currents were read and normalized to a maximal effective concentration of diazepam, where after data points were fitted to the empirical Hill equation by non-linear regression, n=3−14.
(§2) The assay reported here is performed to determine the in vitro functional potency as well as efficacy of PAMs at the major brain GABAA receptors subtypes. To establish this, a full concentration response profile was determined at a GABA concentration giving rise to 5-20% of the maximal GABA-evoked response from α1β2γ2, α2β2γ2, α3β2γ2 and α5β2γ2 receptors expressed in Xenopus laevis oocytes.
Collagenase defolliculated X. laevis oocytes were obtained from Ecocyte Bioscience. For injection, the oocytes were placed in a custom designed chamber in Mod. Barth's solution (90 mM NaCl, 1 mM KCl, 0.66 mM NaNO3, 2.4 mM NaHCO3, 0.74 mM CaCl2, 0.82 mM MgCl2, 100 μg/ml Gentamicin and 10 mM HEPES adjusted to pH 7.55) and injected with 25-50 nl of cRNA mixture using a Pico Pump (WPI). The cRNA mixture contain GABAAR subunits αx, β2, and γ2s in the ratio of 3:1:3 and in a total concentration of 0.5 μg/μl. Following injection, oocytes were maintained at 18° C. in Mod.
Electrophysiological responses from X. laevis oocytes were measured using the two-electrode voltage clamp technique. Single oocytes were placed in custom designed recording chambers that were continuously perfused with ≥2 ml/min OR2 (90 mM NaCl, 2.5 mM KCl, 2.5 mM CaCl2, 1 mM MgCl2 and 5 mM HEPES pH 7.4). […] The oocyte was impaled using manual micro manipulators and allowed to equilibrate at a holding potential of −50 mV to −80 mV for at least 1 min to ensure a maximal leak current of 100 nA before the experiment was initiated. […] Currents were amplified by a Geneclamp 500B amplifier (Axon), low-pass filtered at 20 Hz, digitized at 200 Hz by a Digidata 1322A (Axon) and then recorded as well as analyzed by a PC (Compaq Evo) using the pClamp9 suite (Axon). […]

[2] = biological target: T2, recombinant GABA α3β2γ2 receptors (HEK-293 cell membranes) (Homo sapiens, UniProt P18507+P34903); assay: In vitro inhibition of 3H-flumazenil binding; settings: 3H-flumazenil 1 nM, 40 min at 2° C., HEK-293 α3β2γ2 membranes
T2 construct: expressed in transfected cells; membranes
Source text: Specific binding is total binding minus non-specific binding.

[3] = biological target: T3, α2β2γ2 GABAA receptors expressed in Xenopus laevis oocytes (Homo sapiens, UniProt P18507+P47869); assay: Oocyte two-electrode voltage clamp electrophysiology, α2β2γ2; type: cell-based; settings: GABA at EC10-20; normalized to maximal effective concentration of diazepam
T3 construct: expressed in transfected cells; host or cells: Xenopus laevis oocytes injected with cRNA
Experimental: as §1, §2
(§3) Collagenase defolliculated X. laevis oocytes were obtained from Ecocyte Bioscience. For injection, the oocytes were placed in a custom designed chamber in Mod. […]
(§4) Electrophysiological responses from X. laevis oocytes were measured using the two-electrode voltage clamp technique. […] Currents were amplified by a Geneclamp 500B amplifier (Axon), low-pass filtered at 20 Hz, digitized at 200 Hz by a Digidata 1322A (Axon) and then recorded as well as analyzed by a PC (Compaq Evo) using the pClamp9 suite (Axon). […]

[4] = biological target: T4, α3β2γ2 GABAA receptors expressed in Xenopus laevis oocytes (Homo sapiens, UniProt P18507+P34903); assay: Oocyte two-electrode voltage clamp electrophysiology, α3β2γ2; type: cell-based; settings: GABA at EC10-20; normalized to diazepam
T4 construct: expressed in transfected cells; host or cells: Xenopus laevis oocytes injected with cRNA
Experimental: as §1, §2, §3, §4

[5] = biological target: T5, α5β2γ2 GABAA receptors expressed in Xenopus laevis oocytes (Homo sapiens, UniProt P18507+P31644); assay: Oocyte two-electrode voltage clamp electrophysiology, α5β2γ2; type: cell-based; settings: GABA at EC10-20; normalized to maximal effective concentration of diazepam
T5 construct: expressed in transfected cells; host or cells: Xenopus laevis oocytes injected with cRNA
Experimental: as §1, §2, §3, §4

[6] = test system: male Sprague Dawley (SD) rats; assay: Exploratory locomotor activity in male SD rats; type: in vivo, rat; settings: up to 30 mg/kg per oral, 120 minutes prior, recorded 30 minutes
Experimental: FIG. 4. […] The activity of the rats was automatically registered for 30 minutes (TSE MoTil, Germany).
Male SD rats (180-250 grams, NTac:SD, Taconic, Denmark)
2 hrs post dosing, the rats were placed individually into novel standard home cages with reduced sawdust bedding. The cages were placed in frames equipped with photocells and beams allowing for automatic recording of locomotor behaviour (TSE MoTil, Germany). The exploratory locomotor activity was recorded for 30 minutes.

[7] = test system: Compound 48/80 induced scratching in male CD-1 mice; assay: Compound 48/80 induced scratching in male CD-1 mice
Experimental: Male CD-1 mice (22-30 g) (InterVivo Solutions, Canada)
All treatments were dosed at a dosing volume of 10 ml/kg.
Visual observation of bouts of scratching over 30 minutes. Visual assessments were performed blinded to treatment.

[8] = test system: Chronic Constriction Injury (CCI) in Rats; assay: Mechanical allodynia in chronic constriction injury (CCI) rats, acute and chronic dosing; settings: for paw withdrawal threshold vs vehicle after chronic dosing: tested day 8
Experimental: Morphine was administered subcutaneously. […] The animals were tested after 14 days of surgery. **p<0.01,****p<0.0001 vs vehicle, Two-way ANOVA Fisher's LSD posttest, n=7−9.
Male SPRD rats (Taconic), 140-160 grams at surgery
The sciatic nerve was exposed at the mid-thigh level proximal to the sciatic trifurcation. Four chromic gut ligatures (4/0) (Ethicon, New Brunswick, N.J.) were tied loosely around the nerve, 1-2 mm apart, such that the vascular supply was not overtly compromised. The overlying muscle was closed in layers with 4/0 synthetic absorbable surgical suture.
Morphine-hydrochloride: 6 mg/kg free base weight, 1 ml/kg, subcutaneous administration. Pretreatment: 30 minutes
Morphine hydrochloride: 6 mg/kg free base weight, 1 ml/kg, subcutaneous administration once daily for 7 days.

[9] = test system: male Sprague Dawley (SD) rats; assay: Rotarod performance in male SD rats; settings: 10 mg/kg per oral, 60 minutes before test
Experimental: Rats were trained on the rota rod for two days at 4-40 rpm for 5 min before evaluating the drug effects on the 3rd day.
Male SD rats (150-180 grams, NTac:SD, Taconic, Denmark)
The rats were trained on an accelerating rotarod (4-40 rpm, PanLab), one trial of 5 minutes per day, for two days prior to drug testing. Only rats that were able to stay on the rotating rod for more than 90 seconds after two days of training were included in the study. At the day of testing, the rats were placed on the rotating rod, accelerating with a speed of 4-40 rpm/5 minutes with the minimum time possible to spend on the rod designated as 0 s, and the maximum time spent on the rod set at 300 s.

T1 sequence (P14867 28-456): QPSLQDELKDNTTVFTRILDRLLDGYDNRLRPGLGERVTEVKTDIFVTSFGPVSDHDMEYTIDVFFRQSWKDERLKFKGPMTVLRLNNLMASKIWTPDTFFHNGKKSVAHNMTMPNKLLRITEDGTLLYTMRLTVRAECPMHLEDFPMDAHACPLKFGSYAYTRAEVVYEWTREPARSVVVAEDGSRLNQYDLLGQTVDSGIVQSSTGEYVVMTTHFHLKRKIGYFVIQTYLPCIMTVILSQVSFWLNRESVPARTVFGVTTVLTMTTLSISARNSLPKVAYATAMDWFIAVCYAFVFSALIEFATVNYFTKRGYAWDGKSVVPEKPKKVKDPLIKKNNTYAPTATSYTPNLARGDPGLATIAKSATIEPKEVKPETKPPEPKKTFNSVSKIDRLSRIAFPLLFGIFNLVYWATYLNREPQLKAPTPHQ
T1 sequence (P47870 25-512 partner limits assumed): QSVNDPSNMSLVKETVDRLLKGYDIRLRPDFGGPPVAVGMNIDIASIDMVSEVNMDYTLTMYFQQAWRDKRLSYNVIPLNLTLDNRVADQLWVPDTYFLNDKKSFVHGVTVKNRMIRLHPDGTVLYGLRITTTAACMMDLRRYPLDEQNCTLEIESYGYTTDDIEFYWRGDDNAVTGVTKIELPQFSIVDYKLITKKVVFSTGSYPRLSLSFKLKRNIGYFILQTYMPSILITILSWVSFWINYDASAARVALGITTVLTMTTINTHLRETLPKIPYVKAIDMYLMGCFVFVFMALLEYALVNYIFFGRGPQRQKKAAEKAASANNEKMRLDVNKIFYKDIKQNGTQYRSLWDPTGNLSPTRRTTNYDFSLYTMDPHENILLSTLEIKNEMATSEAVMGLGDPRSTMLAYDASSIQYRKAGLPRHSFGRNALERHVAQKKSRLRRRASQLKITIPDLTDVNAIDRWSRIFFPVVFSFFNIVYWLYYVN
T1 sequence (P18507 40-467 isoform P18507-1 limits assumed): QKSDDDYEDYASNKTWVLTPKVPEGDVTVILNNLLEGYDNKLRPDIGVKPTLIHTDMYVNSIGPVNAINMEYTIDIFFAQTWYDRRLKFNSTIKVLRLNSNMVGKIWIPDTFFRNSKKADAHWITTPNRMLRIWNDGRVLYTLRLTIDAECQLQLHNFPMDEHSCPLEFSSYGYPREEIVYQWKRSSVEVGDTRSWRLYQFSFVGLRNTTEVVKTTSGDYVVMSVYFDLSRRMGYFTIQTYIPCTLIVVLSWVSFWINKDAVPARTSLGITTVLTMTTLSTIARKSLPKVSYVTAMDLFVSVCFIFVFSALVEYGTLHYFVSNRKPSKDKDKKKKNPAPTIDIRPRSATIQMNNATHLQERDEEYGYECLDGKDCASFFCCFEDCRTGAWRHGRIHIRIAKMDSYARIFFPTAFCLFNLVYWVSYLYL
T2 sequence (P34903 29-492): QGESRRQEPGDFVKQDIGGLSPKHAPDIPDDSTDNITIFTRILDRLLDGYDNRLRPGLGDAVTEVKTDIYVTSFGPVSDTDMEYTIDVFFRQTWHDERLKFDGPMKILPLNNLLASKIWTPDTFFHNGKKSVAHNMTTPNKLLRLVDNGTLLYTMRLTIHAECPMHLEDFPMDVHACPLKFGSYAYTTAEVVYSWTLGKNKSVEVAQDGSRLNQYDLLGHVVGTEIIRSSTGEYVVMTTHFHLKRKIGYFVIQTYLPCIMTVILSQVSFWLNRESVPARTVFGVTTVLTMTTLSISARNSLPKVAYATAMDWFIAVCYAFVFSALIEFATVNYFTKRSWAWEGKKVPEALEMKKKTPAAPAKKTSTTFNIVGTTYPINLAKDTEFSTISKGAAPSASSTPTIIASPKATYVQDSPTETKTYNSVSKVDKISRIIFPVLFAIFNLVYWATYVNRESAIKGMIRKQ
T2 sequence (P47870 25-512 partner limits assumed): as the sequence (P47870 25-512 partner limits assumed) above
T2 sequence (P18507 40-475): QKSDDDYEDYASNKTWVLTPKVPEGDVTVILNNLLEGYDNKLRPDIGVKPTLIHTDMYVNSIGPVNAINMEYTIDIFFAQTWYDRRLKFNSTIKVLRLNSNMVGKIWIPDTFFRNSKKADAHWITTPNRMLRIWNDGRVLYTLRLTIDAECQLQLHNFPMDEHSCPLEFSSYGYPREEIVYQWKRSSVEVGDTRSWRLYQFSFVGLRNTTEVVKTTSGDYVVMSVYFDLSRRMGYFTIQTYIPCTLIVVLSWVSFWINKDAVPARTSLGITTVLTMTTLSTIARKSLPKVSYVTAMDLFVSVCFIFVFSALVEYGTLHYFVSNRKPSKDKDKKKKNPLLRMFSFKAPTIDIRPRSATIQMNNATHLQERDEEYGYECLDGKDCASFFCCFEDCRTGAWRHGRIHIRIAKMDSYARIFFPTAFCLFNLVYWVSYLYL
T5 sequence (P31644 32-462): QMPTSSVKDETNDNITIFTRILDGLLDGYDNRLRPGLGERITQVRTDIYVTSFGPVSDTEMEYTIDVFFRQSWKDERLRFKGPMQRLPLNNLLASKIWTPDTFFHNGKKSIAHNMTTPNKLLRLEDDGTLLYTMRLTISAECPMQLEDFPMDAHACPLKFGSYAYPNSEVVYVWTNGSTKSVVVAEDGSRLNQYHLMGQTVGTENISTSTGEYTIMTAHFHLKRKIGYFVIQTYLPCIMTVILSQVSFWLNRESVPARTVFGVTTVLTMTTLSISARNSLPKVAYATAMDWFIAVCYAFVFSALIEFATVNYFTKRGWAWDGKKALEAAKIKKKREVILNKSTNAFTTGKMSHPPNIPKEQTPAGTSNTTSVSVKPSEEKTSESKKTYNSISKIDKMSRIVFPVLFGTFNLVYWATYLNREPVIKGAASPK
T5 sequence (P47870 25-512 partner limits assumed): as the sequence (P47870 25-512 partner limits assumed) above
T5 sequence (P18507 40-467 isoform P18507-1 limits assumed): as the sequence (P18507 40-467 isoform P18507-1 limits assumed) above
T3 sequence (P47869 29-451): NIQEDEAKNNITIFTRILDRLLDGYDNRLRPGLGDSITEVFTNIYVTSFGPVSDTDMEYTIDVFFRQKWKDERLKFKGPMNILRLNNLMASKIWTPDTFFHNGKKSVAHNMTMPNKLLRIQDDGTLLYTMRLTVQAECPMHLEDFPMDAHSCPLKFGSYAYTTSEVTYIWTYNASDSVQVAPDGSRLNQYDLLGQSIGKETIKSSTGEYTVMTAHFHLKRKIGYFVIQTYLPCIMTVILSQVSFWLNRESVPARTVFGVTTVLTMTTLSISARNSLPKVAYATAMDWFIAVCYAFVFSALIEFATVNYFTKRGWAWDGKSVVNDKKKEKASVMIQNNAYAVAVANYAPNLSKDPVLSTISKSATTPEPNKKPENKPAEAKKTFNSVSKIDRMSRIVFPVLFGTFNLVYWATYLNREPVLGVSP
T3 sequence (P47870 25-512 partner limits assumed): as the sequence (P47870 25-512 partner limits assumed) above
T3 sequence (P18507 40-467 isoform P18507-1 limits assumed): as the sequence (P18507 40-467 isoform P18507-1 limits assumed) above
T4 sequence (P34903 29-492): as the sequence (P34903 29-492) above
T4 sequence (P47870 25-512 partner limits assumed): as the sequence (P47870 25-512 partner limits assumed) above
T4 sequence (P18507 40-467 isoform P18507-1 limits assumed): as the sequence (P18507 40-467 isoform P18507-1 limits assumed) above

Compound: COc1ncc(-c2cccc(-n3cnc4cc(C(C)(C)O)ccc43)c2)c(OC)n1 [Compound 9, reference compound]
- modulation of GABA-mediated currents, α1β2γ2 receptor [1]: clearly negative

Compound: COc1ncc(-c2cccc(-n3cnc4cc(C(C)(C)O)cnc43)c2)c(OC)n1 [Compound 1, 2-(3-(3-(2,4-dimethoxypyrimidin-5-yl)phenyl)-3H-imidazo[4,5-b]pyridin-6-yl)propan-2-ol]
- IC50 [2]: 38 nM
- Ki [2]: 15 nM
- modulation of GABA-mediated currents, α1β2γ2 receptor [1]: no activation
- modulation of GABA-mediated currents, α1β2γ2 receptor ([1]; listed as compound 1): close to zero
- activation of GABAA-α2 containing receptors [3]: less than 10%
- potentiation of GABA-mediated currents in GABAA-α3 containing receptors [4]: preferential potentiation
- activation of GABAA-α5 containing receptors [5]: less than 10%
- exploratory locomotor activity [6]: did not exert any effect; also recorded: did not affect exploratory locomotor activity
- CI (IV 0.5 mg/kg, rat): 0.38 L/h/kg
- concentration after 8 h (dose 1 mg/kg (Table 3)): *AUC calculated 0-8 h, concentration after 8 h was 149 ng/ml.
- bouts of scratching over 30 minutes vs vehicle ([7]; 3, 10, 30 mg/kg oral gavage, 30 min prior, significant at 10 and 30 mg/kg): significantly relieved itching; also recorded: dose dependently reduced
- minimal effective dose, bouts of scratching ([7]; oral gavage 30 min before compound 48/80): 10 mg/kg
- paw withdrawal threshold vs vehicle after chronic dosing ([8]; 1, 3, 10 mg/kg per oral once daily for 7 days): significant enhancement of the paw withdrawal threshold was maintained
- paw withdrawal threshold vs vehicle after chronic dosing ([8]; 1, 3, 10 mg/kg per oral once daily for 7 days, listed as compound 1): significant analgesic effect of all 3 doses were maintained
- paw withdrawal threshold vs vehicle ([8]; acute, 1 mg/kg per oral, 2 hrs and 3 hrs post treatment): significantly enhanced paw withdrawal threshold
- paw withdrawal threshold vs vehicle ([8]; acute, 3 mg/kg per oral, 2 hrs and 3 hrs post treatment): significantly enhanced paw withdrawal threshold
- paw withdrawal threshold vs vehicle ([8]; acute, 10 mg/kg per oral): just failed to reach statistical significance
- minimal effective dose, reversal of mechanical allodynia ([8]; acute, oral administration, CCI rats): less than or equal to 1 mg/kg

Compound: CN1CC[C@]23c4c5ccc(O)c4O[C@H]2[C@@H](O)C=C[C@H]3[C@H]1C5.Cl [Morphine hydrochloride, reference compound]
- paw withdrawal threshold vs vehicle after chronic dosing ([8]; 6 mg/kg subcutaneous once daily for 7 days, hydrochloride): completely abolished the allodynic effect; also recorded: completely lost
- paw withdrawal threshold vs vehicle ([8]; acute, 6 mg/kg subcutaneous): significantly enhanced paw withdrawal threshold

Compound: CN1C(=O)CN=C(c2ccccc2)c2cc(Cl)ccc21 [Diazepam]
- latency to fall off accelerating rotarod [9]: significantly shortened the time to fall off the rod; also recorded: significantly shortened the latency to fall off

Source: patent publication US11396510B2, “GABAA receptor ligand” (Saniona A/S, priority 2018, dated 2022)
